We go through 1 compound from patent US5444151A, “Platelet derived growth factor antagonists” (Ludwig Institute for Cancer Research, priority 1992, dated 1995).

In one test the test system is PDGF-α or β receptors. The experiment in a line: PDGF receptor internalization and down regulation. It counts as cell-based, human. The following applies: four hours at 37° C.; surface receptors estimated with 125I-PDGF-BB. The protocol: As binding of PDGF to receptors leads to receptor internalization and down regulation, investigations were carried out to determine whether the interaction of PDGF and peptide […] led to the internalization and down regulation of receptors. To test this, confluent cells, as described supra, were washed once with binding buffer at 37° C., followed by incubation with different concentrations of synthetic peptide (0.5 ml of PBS containing 1 mg/ml BSA). Following this, the cells were incubated at 37° C. for four hours, followed by washing with 1 ml of ice cold buffer consisting of 20 mM Na-acetate, 150 mM NaCl, 0.2% BSA adjusted to pH 3.7 with acetic acid. The cells were then incubated for 10 minutes on ice in buffer, followed by two washings with 1 ml binding buffer, at pH 7.4. The number of PDGF receptors on the cell surface was estimated by incubation with ^125 I-PDGF-BB (~50,000cpm) in 0.5 ml binding buffer for 60 minutes on ice, followed by washing, lysis and determination of cell bound radioactivity.

The test system of test [1] is human foreskin fibroblast cells. The experiment in a line: Inhibition of 125I-ligand internalization and degradation (TCA non-precipitatable radioactivity). It counts as cell-based. The note with it: four hours at 37° C. The protocol: To do this, confluent human foreskin fibroblast cells in 12 well dishes were washed once with 1.0 ml of Ham's F-12 medium, supplemented with 1 mg/ml BSA. As described supra, those cells to be tested later for ^125 I-PDGF-BB degradation were preincubated with PDGF-AA to down regulate α receptors. […] The mixtures were incubated for four hours at 37° C., the incubation medium was removed, and then precipitated with trichloroacetic acid at 10% final concentration. The amount of trichloroacetic acid non-precipitatable radioactivity in cell culture medium was taken as an estimate of ligand degradation--i.e., it represents ligand that had been internalized, degraded and released into the medium in the form of free ^125 I, ^[…] or low molecular weight fragments. This parameter was defined after four hours of incubation at 37° C.

Test [2] addresses T1, PDGF-β receptor (Homo sapiens, UniProt P09619).
T1 construct: cultures of human foreskin fibroblast cell line AG1518; endogenous in cells; host or cells: AG1518 human foreskin fibroblasts (Human Mutant Cell Repository)
Nature of the test: Competition with 125I-PDGF-BB for binding to AG1518 fibroblasts (α receptor down regulated by PDGF-AA preincubation). The note with it: AG1518 cells, competing activity. The protocol: (§1) In order to test for receptor binding, cultures of human foreskin fibroblast cell line AG1518 (obtained from the Human Mutant Cell Repository), were grown to confluence in Ham's F-12 medium containing 10% newborn calf serum. Those cells which were to be used in analysis of PDGF-β receptor binding were preincubated for 60 minutes at 37° C. in 0.5 ml/well of Ham's F-12 medium, supplemented with 1 mg/ml of bovine serum albumin (BSA), and 50 ng/ml of PDGF-AA. This combination down regulates PDGF-α receptor, as per Claesson-Welsh et al., J. Biol. Chem. 264: 1742-1747 (1989).
(§2) Cells were prepared for receptor binding analyses by washing with ice cold binding buffer (phosphate buffered saline with 0.9 mM CaCl2, 0.49 mM MgSO4 and 1 mg/ml BSA). The cells were then incubated on ice for 90 minutes with different concentrations (0-100 ug/ml) of synthetic peptides (listed in Table 1, infra), in 0.5 ml of binding buffer per well. […] The labelled ligand was added and then incubated for 60 minutes at 0° C. after which the cells were washed five times with ice cold binding buffer. The washed cells were then lysed for 60 minutes at room temperature in a lysis buffer (1% Triton X-100, 10% glycerol, 20 mM Tris-HCl, pH 7.5). Solubilized radioactivity was determined in a gamma counter. Competing activities of synthetic peptides were compared to standard curves, using unlabelled ligand.
In Table 2, "+++" means <30 μM; "++" from 30-60 μM; "+" 60-150 μM; and "-", >150 μM.

Test [3] addresses T2, EGF receptor (Homo sapiens, UniProt P00533).
T2 construct: cultures of human foreskin fibroblast cell line AG1518; endogenous in cells; host or cells: human foreskin fibroblasts (AG1518)
Nature of the test: EGF induced receptor dimerization and autophosphorylation in intact cells. It counts as cell-based. The note with it: EGF 300 ng/ml, intact fibroblasts. The protocol:
(§3) Confluent human foreskin fibroblast cells were used (25 cm^2 dishes of cultures). The cells were washed twice with binding buffer, as described supra, with 1 mg/ml BSA added thereto. This was followed by 90 minutes of incubation with one of synthetic peptides 16, […], 20 and […] on ice. […] A dimerization assay was then carried out, basically following Eriksson et al., Growth Factors 6: 1-14 (1992). Essentially, receptors were cross linked for 20 minutes at room temperature in 1 mM BS^3 (Bis(sulfosuccinimidyl)suberate) in lysis buffer (0.5% Triton X-100, 0.5% deoxycholate, […], pH 7.4, 150 mM NaCl, 10 mM EDTA, 1 mM PMSF (phenylmethylsulfonyl fluoride), 1% Trasylol (aprotinin), 100 μM ortovandat, a phosphatase inhibitor). Cross linking was quenched by adding 70 mM methylammonium chloride for 10 minutes. Samples were then subjected to SDS gel electrophoresis in 4% slab gels, followed by electroblotting on to nitrocellulose membranes. The blocked membranes were incubated for two hours with affinity purified phosphotyrosine antibodies (Ek et al., J. Biol. Chem. 259: 1145-11152 (1984)), followed by three washes. Blots were then incubated for 45 minutes with peroxidase conjugated, affinity purified swine antirabbit IgG immunoglobulin. After an additional three washes, complexes were visualized using the ECL developing system.

Test [4] deals with T3, PDGF-β receptor (Sus scrofa, UniProt A0A8W4FFG6).
T3 construct: from Triton X-100 solubilized porcine uterus membranes and purified up to the Mono-Q chromatography step; from tissue; host or cells: porcine uterus membranes
T3 sequence (A0A8W4FFG6 32-1102): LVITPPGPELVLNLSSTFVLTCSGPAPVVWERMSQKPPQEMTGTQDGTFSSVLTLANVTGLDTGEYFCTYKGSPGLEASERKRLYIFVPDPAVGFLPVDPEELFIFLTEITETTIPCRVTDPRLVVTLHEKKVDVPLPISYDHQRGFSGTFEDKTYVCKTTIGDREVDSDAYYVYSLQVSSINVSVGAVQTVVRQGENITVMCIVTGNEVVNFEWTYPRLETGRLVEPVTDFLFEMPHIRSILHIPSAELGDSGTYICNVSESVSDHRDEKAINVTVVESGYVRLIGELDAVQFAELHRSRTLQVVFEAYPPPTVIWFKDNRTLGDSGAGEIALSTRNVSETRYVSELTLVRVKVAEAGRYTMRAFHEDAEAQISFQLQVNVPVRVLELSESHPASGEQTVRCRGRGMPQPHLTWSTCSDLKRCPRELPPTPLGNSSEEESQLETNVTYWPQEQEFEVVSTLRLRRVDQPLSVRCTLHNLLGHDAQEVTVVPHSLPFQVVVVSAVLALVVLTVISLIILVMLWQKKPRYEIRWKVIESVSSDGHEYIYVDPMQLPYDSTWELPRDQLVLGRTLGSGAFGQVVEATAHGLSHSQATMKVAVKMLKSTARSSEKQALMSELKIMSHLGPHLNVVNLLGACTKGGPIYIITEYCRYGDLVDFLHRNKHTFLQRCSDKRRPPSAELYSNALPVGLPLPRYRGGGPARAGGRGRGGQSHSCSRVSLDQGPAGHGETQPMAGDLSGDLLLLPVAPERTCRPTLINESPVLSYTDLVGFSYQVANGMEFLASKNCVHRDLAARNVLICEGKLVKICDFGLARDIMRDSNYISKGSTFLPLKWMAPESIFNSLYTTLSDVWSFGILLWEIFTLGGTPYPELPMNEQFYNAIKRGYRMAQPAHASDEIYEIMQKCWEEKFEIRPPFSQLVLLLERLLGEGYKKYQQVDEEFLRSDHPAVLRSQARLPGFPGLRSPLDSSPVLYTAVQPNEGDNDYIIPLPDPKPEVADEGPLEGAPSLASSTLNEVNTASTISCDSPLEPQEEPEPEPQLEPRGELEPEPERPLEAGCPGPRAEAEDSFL
Nature of the test: Autophosphorylation and dimerization of partially purified PDGF-β receptor. The class given is biochemical, porcine. The following applies: nearly complete for 16T, complete for 16; about 100 ng receptor, 100 ng PDGF-BB, 40 ul. The protocol: A preparation of PDGF-β receptor, from Triton X-100 solubilized porcine uterus membranes and purified up to the Mono-Q chromatography step of Ronnstrand et al., J. Biol. Chem. 262: 2929-2932 (1987), was made, and the autophosphorylation assay described therein was carried out.
Approximately 100 ng of the receptor was incubated for 5 minutes at 0° C. with peptide 16T or peptide 20, at different concentrations. […] Four ul of 150 μM [^32 P]ATP (containing 5×10^6 cpm of radioactivity) was added, followed by an additional 10 minutes of incubation at 0° C. Incorporation of radioactivity was terminated by adding 5 μl of 15 mM unlabelled ATP and 5 μl of 40 mM phenylphosphate. Samples were cross linked by incubating with 0.5 mM DSS (12.5 mM, in dimethyl sulfoxide) for 30 minutes at room temperature. The cross linking reaction was blocked by adding 50 mM methylammonium chloride, 20 mM Hepes, pH 7.4.

Test [5] deals with human foreskin fibroblasts. Nature of the test: Ligand stimulated [3H]thymidine incorporation. It counts as cell-based. The source says:
The possible role of peptide 16T as an antagonist for PDGF activity in vivo was investigated. Following the methodology of Betsholtz et al., J. Cell Physiol 118: 203-210 (1984), the disclosure of which is incorporated by reference, [^3 H] thymidine incorporation by human fibroblasts in the presence of various peptides was studied.

For a further test, the target named is T4, PDGF-α receptor (Homo sapiens, UniProt P16234).
T4 construct: cultures of human foreskin fibroblast cell line AG1518; endogenous in cells; host or cells: AG1518 human foreskin fibroblasts
T4 sequence (P16234 24-1089): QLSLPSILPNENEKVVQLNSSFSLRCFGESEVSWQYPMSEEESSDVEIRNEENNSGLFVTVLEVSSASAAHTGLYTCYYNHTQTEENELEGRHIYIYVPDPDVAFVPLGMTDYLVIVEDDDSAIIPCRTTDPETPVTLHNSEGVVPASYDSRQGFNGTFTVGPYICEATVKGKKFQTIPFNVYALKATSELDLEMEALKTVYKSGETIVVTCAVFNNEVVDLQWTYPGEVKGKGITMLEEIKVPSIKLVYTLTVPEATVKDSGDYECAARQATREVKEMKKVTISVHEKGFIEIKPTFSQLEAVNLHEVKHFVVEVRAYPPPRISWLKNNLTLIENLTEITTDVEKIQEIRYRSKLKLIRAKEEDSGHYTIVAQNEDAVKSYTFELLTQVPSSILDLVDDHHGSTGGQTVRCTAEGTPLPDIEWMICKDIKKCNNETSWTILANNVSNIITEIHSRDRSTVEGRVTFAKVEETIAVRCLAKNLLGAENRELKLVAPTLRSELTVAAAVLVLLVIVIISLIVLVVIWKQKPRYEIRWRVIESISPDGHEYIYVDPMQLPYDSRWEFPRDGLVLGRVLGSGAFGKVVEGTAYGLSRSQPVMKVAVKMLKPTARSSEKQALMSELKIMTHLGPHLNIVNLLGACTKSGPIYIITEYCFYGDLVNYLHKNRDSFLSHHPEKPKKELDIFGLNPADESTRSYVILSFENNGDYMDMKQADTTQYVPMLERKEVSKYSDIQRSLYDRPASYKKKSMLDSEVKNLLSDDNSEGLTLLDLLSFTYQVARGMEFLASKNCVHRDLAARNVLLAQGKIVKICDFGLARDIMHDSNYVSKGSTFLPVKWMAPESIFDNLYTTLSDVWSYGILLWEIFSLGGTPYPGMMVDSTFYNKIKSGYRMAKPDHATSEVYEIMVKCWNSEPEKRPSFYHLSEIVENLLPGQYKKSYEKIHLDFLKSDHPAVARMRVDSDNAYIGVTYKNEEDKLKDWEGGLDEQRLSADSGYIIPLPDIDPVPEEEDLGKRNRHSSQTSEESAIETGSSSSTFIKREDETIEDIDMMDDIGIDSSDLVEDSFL
The experiment in a line: Competition with 125I-PDGF-AA for binding to AG1518 fibroblasts. The protocol:
as §1, §2

The target in test [6] is T2, EGF receptor. The experiment in a line: Competition with 125I-EGF for binding to AG1518 fibroblasts. The protocol: as §1, §2
The test system of the next test is PDGF receptors. Nature of the test: PDGF-BB induced receptor dimerization and autophosphorylation in intact cells. The class given is cell-based, human. The following applies: PDGF-BB 300 ng/ml, intact fibroblasts. The protocol: as §3

The structures appear in SMILES notation. Entries after “also recorded” stand apart in the source; their conditions may differ. Numbered stars: 1 amine (or outer) side, 2 acyl side, 3 side chain; on linkers, the order of the positions; unused ones are H or OH. Square brackets hold non-standard residues; d marks the D form. Peptide text beside a SMILES is read from it. X1 = CSc1ccc(-c2[nH]c3ccccc3c2C[C@H](N[*:1])C(=O)[*:2])cc1

T2 sequence (P00533 25-1210): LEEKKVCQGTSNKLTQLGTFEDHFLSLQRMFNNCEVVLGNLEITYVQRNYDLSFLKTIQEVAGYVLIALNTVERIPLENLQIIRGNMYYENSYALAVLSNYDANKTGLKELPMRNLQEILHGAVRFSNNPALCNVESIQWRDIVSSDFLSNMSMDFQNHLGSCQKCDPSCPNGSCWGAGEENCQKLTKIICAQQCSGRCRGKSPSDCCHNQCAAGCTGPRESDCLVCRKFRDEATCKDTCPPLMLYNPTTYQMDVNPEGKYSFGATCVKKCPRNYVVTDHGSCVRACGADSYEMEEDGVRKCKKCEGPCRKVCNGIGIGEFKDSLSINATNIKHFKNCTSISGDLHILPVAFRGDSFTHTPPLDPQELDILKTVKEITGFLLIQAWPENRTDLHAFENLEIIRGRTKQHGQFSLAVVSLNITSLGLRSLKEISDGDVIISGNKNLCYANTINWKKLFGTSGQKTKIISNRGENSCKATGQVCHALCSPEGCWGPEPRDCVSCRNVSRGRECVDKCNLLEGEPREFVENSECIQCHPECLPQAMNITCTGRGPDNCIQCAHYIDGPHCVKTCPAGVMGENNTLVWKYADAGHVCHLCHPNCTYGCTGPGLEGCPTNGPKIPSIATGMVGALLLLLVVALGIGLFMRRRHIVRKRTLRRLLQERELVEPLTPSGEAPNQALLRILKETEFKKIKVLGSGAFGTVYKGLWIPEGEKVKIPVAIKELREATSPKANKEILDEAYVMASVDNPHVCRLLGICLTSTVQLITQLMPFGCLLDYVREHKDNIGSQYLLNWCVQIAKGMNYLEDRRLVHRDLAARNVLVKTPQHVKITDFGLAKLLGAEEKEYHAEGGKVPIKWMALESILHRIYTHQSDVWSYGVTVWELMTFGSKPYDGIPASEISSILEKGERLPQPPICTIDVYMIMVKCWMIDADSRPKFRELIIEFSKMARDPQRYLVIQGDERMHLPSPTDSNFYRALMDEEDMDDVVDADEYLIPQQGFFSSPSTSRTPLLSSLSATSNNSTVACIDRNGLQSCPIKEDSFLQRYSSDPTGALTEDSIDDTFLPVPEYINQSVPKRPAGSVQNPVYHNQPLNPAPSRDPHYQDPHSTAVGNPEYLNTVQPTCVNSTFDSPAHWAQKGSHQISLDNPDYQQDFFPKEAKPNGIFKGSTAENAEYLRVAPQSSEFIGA
T1 sequence (P09619 33-1106): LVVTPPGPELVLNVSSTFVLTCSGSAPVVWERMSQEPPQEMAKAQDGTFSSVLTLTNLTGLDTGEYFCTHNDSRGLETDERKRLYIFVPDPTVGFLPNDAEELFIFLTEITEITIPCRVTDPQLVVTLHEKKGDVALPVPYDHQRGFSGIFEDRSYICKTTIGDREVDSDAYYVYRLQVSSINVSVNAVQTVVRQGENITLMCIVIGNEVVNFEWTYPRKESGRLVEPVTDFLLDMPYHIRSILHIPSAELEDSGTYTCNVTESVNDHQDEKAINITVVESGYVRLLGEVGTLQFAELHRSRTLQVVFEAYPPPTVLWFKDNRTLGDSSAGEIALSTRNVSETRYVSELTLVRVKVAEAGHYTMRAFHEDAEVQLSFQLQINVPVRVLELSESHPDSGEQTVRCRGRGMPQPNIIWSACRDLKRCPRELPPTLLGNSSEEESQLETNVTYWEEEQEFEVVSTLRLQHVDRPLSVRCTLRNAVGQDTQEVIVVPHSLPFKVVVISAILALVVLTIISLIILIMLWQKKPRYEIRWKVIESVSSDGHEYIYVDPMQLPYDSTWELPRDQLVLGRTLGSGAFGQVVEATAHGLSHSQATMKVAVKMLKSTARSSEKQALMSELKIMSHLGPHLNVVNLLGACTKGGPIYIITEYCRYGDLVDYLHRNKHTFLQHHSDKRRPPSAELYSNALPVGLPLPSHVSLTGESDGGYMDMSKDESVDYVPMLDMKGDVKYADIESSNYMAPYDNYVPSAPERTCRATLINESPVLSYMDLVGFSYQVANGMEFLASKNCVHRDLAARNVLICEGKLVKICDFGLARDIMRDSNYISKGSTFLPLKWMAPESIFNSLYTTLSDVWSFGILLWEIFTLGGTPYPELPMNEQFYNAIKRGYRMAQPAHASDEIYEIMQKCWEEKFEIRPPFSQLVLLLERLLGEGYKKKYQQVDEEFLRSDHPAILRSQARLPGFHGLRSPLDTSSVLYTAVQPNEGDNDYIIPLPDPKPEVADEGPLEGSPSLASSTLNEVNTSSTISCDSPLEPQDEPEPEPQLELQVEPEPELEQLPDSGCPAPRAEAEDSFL

Take `CC[C@H](C)[C@H](NC(=O)[C@H](CCC(=O)O)NC(=O)[C@H](Cc1c(-c2ccc(SC)cc2)[nH]c2ccccc12)NC(=O)[C@@H](NC(=O)[C@H](CC(C)C)NC(=O)[C@H](Cc1ccccc1)NC(=O)[C@H](CC(N)=O)NC(=O)[C@H](C)N)C(C)C)C(=O)N[C@H](C(=O)N[C@@H](CCCNC(=N)N)C(=O)N[C@@H](CCCCN)C(=O)N[C@@H](CCCCN)C(=O)N1CCC[C@H]1C(=O)O)C(C)C` [*16T, Ala Asn Phe Leu Val Xaa Glu Ile Val Arg Lys Lys Pro] (H-ANFLV[X1]EIVRKKP-OH; N-terminus and C-terminus assumed): the “Down regulation of PDGF receptors (in words)” value with PDGF-α or β receptors is “did not downregulate”. The “Inhibition of 125I-PDGF-AA degradation (in words)” value in test [1] is given as “most effective”. For the same compound, in test [1] (α receptors down regulated), the “Inhibition of 125I-PDGF-BB degradation (in words)” value is recorded as “most potent”. The “Receptor competing activity, PDGF-BB binding (in words)” value on PDGF-β receptor [2] is listed as “effective competitor; also recorded: far more efficient in competing with PDGF for receptor binding”. At EGF receptor [3], the “Effect on EGF induced autophosphorylation and dimerization (in words)” value was “no effect”. Moreover, the “Amount of peptide giving complete inhibition of dimerization and autophosphorylation” value on PDGF-β receptor [4] worked out at 5 µg. Moreover, the “Effect on ligand stimulated [3H]thymidine incorporation (in words)” value in [5] (PDGF-AA, PDGF-BB or EGF stimulation) was “did inhibit PDGF-AA and PDGF-BB induced mitogenicity, but also EGF induced mitogenicity”. Also, the “Effect on background [3H]thymidine incorporation (in words)” value in [5] (no ligand) is “lowered background incorporation of [^3 H] thymidine dramatically”. In addition, the “[3H]thymidine incorporation, Control” value in test [5] (peptide present, no ligand, mean of duplicates) is reported as 46 cpm. Also, the “[3H]thymidine incorporation, EGF” value in [5] (peptide present, stimulated with EGF, mean of duplicates) is 119 cpm. In addition, in test [5] (peptide present, stimulated with PDGF-AA, mean of duplicates), the “[3H]thymidine incorporation, PDGF-AA” value was 90 cpm. Besides, the “[3H]thymidine incorporation, PDGF-BB” value in test [5] (peptide present, stimulated with PDGF-BB, mean of duplicates) was 102 cpm. Besides, the “Receptor competing activity, PDGF-AA binding (in words)” value on PDGF-α receptor (AG1518 cells) is given as “higher activity; also recorded: effective competitor”. Further, the “50% competition for receptor binding” value at PDGF-α receptor (α receptor) is “Forty-four”. Besides, at EGF receptor [6], the “Competition for binding of 125I-EGF to the EGF receptor (in words)” value was “none of peptides 16, 16T, 20 and 20T compete”. In the test on PDGF receptors, the “Inhibition of PDGF induced autophosphorylation and dimerization” value is listed as “about 55%”.
